Target: T1, human Farnesoid X Receptor (FXR) ligand binding domain (Homo sapiens, UniProt Q96RI1)
T1 construct: purchased Invitrogen
T1 sequence (Q96RI1 193-472 isoform Q96RI1-2): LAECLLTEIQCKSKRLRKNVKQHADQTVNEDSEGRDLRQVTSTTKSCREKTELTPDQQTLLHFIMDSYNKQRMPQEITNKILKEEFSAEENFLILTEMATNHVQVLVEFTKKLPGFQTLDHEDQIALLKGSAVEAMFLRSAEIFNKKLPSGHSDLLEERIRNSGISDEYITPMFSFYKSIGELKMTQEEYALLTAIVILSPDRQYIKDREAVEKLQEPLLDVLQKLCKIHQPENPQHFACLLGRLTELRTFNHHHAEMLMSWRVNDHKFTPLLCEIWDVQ
Assay: Human GST-FXR LBD co-activator interaction assay (FXR HTRF assay)
Assay type: biochemical
Settings: GST-FXR LBD with biotin-labeled SRC-1 peptide, FRET/HTRF, 2.5 hours at room temperature; response relative to GW4064; read-out: FXR coactivator interaction assay (HTRF) (EC50)
Source text: Human GST-FXR LBD Co-Activator Interaction Assay.
The FXR HTRF assay is a biochemical assay measuring the interaction between FXR and a coactivator protein (SRC1). The ligand-induced interaction with a coactivator protein is a critical step in transcriptional activation by FXR. Thus, this is an assay designed to measure FXR agonist activity of compounds.
The ligand-dependent interaction between GST-FXR LBD and a peptide derived from Steroid Receptor Coactivator-1 (SRC-1) was monitored by Fluorescence Resonance Energy Transfer (FRET). […] Test compounds (in DMSO solution) and detection reagents (anti-GST-Cryptate labeled antibody and Streptavidin-XL665 conjugate; CisBio) were added in assay buffer containing 50 mM KF. Plates are incubated at room temperature in the dark for 2.5 hours before reading on an Envision (PerkinElmer) at 665 nm and 590 nm.
A negative control (without Streptavidin-XL665) was run with each assay and represented the background fluorescence. A reference FXR agonist, GW4064, was included in each experiment as positive control. The efficacy of each test compound was compared to that of GW4064. At each concentration, the relative activity of the test compound was expressed as Response %=(Rsample−RDMSO)/(Rpositive−RDMSO), where Rsample is the HTRF response (expressed in Delta F %) for the test compound, Rpositive is the maximal response for GW4064 at saturating concentrations, and RDMSO is the response for DMSO control. The EC50 values were calculated using GraphPad Prism (GraphPad Software) using non-linear regression curve fit (log(agonist) vs. response−variable slope (four parameters)).

Q: With `CCOC(=O)c1ccc2nc(N3CCC(OCc4c(-c5ccccc5OC(F)(F)F)noc4C4(C)CC4)CC3)sc2c1` [Example 2-2A, ethyl 2-(4-{[5-(1-methylcyclopropyl)-3-[2-(trifluoromethoxy)phenyl]-1,2-oxazol-4-yl]methoxy}piperidin-1-yl)-1,3-benzothiazole-6-carboxylate] as the molecule, how does the EC50 read?
A: 1180 nM

Q: Which EC50 does the source give for `O=C(O)c1ccc2nc(N3CCC(OCc4c(-c5c(F)cccc5Cl)noc4C4CC4)CC3)sc2c1` [Example 2-12B, 2-(4-{[3-(2-chloro-6-fluorophenyl)-5-cyclopropyl-1,2-oxazol-4-yl]methoxy}piperidin-1-yl)-1,3-benzothiazole-6-carboxylic acid] here?
A: 57 nM

Q: For `NC(=O)c1ccc2nc(N3CCC(OCc4c(-c5c(Cl)cccc5Cl)noc4C4CC4)CC3)sc2c1` [Example 6-2, 2-(4-((5-cyclopropyl-3-(2,6-dichlorophenyl)isoxazol-4-yl)methoxy)piperidin-1-yl)benzo[d]thiazole-6-carboxamide], which EC50 is on record?
A: 19 nM

Q: For `N#Cc1ccc2nc(N3CCC(OCc4c(-c5c(Cl)cccc5Cl)noc4C4CC4)CC3)sc2c1` [Example 6-1, 2-(4-((5-cyclopropyl-3-(2,6-dichlorophenyl)isoxazol-4-yl)methoxy)piperidin-1-yl)benzo[d]thiazole-6-carbonitrile], which EC50 is on record?
A: 132 nM

Q: For `O=C(O)c1ccc2nc(N3CCC(OCc4c(C5CCCC5)noc4C4CC4)CC3)sc2c1` [Example 2-16, 2-{4-[(3-cyclopentyl-5-cyclopropyl-1,2-oxazol-4-yl)methoxy]piperidin-1-yl}-1,3-benzothiazole-6-carboxylic acid], which EC50 is on record?
A: 263 nM

Q: For `O=C(O)c1cc(F)c2nc(N3CCC(OCc4c(-c5ccccc5OC(F)F)noc4C4CC4)CC3)sc2c1` [Example 2-10, 2-[4-({5-cyclopropyl-3-[2-(difluoromethoxy)phenyl]-1,2-oxazol-4-yl}methoxy)piperidin-1-yl]-4-fluoro-1,3-benzothiazole-6-carboxylic acid], which EC50 is on record?
A: 21 nM

Q: `Cc1cc(C(=O)O)cc2sc(N3CCC(OCc4c(-c5ccccc5OC(F)(F)F)noc4C4CC4)CC3)nc12` [Example 2-3, 2-[4-({5-cyclopropyl-3-[2-(trifluoromethoxy)phenyl]-1,2-oxazol-4-yl}methoxy)piperidin-1-yl]-4-methyl-1,3-benzothiazole-6-carboxylic acid] was tested. Which EC50 did it give?
A: 24 nM

Q: For `Fc1cccc(Cl)c1-c1noc(C2CC2)c1COC1CCN(c2nc3ccc(-c4nn[nH]n4)cc3s2)CC1` [Example 7-6, 2-(4-{[3-(2-chloro-6-fluorophenyl)-5-cyclopropyl-1,2-oxazol-4-yl]methoxy}piperidin-1-yl)-6-(2H-1,2,3,4-tetrazol-5-yl)-1,3-benzothiazole], which EC50 is on record?
A: 154 nM

Q: How did the EC50 turn out when `O=C(O)c1ccc2nc(N3CCC(OCc4c(-c5c(F)cccc5F)noc4C4CC4)CC3)sc2c1` [Example 2-14, 2-(4-{[5-cyclopropyl-3-(2,6-difluorophenyl)-1,2-oxazol-4-yl]methoxy}piperidin-1-yl)-1,3-benzothiazole-6-carboxylic acid] was run?
A: 31 nM

Q: How did the EC50 turn out when `CCOC(=O)c1ccc2nc(N3CCCC(OCc4c(-c5ccccc5OC(F)(F)F)noc4C4CC4)CC3)sc2c1` (stereo not drawn) [Example 3-1A, ethyl 2-[4-({5-cyclopropyl-3-[2-(trifluoromethoxy)phenyl]-1,2-oxazol-4-yl}methoxy)azepan-1-yl]-1,3-benzothiazole-6-carboxylate] was run?
A: 248 nM

Q: Which EC50 does the source give for `COc1cc(C(=O)O)cc2sc(N3CCC(OCc4c(-c5ccccc5C(F)(F)F)noc4C4CC4)CC3)nc12` [Example 1-4, 2-(4-((5-cyclopropyl-3-(2-(trifluoromethyl)phenyl)isoxazol-4-yl)methoxy)piperidin-1-yl)-4-methoxybenzo[d]thiazole-6-carboxylic acid] here?
A: 4 nM

Q: With `N#Cc1ccc2nc(N3CCC(OCc4c(-c5ccccc5OC(F)(F)F)noc4C4CC4)CC3)sc2c1` [Example 7-1, 2-[4-({5-cyclopropyl-3-[2-(trifluoromethoxy)phenyl]-1,2-oxazol-4-yl}methoxy)piperidin-1-yl]-1,3-benzothiazole-6-carbonitrile] as the molecule, how does the EC50 read?
A: 2200 nM

Q: For `O=C(O)c1ccc2sc(N3CCC(OCc4c(-c5ccccc5OC(F)(F)F)noc4C4CC4)CC3)nc2c1` [Example 2-1, 2-[4-({5-cyclopropyl-3-[2-(trifluoromethoxy)phenyl]-1,2-oxazol-4-yl}methoxy)piperidin-1-yl]1,3-benzothiazole-5-carboxylic acid], which EC50 is on record?
A: 62 nM

Q: With `O=C(O)c1ccc2nc(N3CCC(OCc4c(C5CCCCC5C(F)(F)F)noc4C4CC4)CC3)sc2c1` (single isomer, unassigned) [5 (Diastereomer B)] as the molecule, how does the EC50 read?
A: 64 nM

Q: For `FC(F)(F)Oc1ccccc1-c1noc(C2CC2)c1COC1CCN(c2nc3ccc(-c4nn[nH]n4)cc3s2)CC1` [Example 7-3, 2-[4-({5-cyclopropyl-3-[2-(trifluoromethoxy)phenyl]-1,2-oxazol-4-yl}methoxy)piperidin-1-yl]-6-(2H-1,2,3,4-tetrazol-5-yl)-1,3-benzothiazole], which EC50 is on record?
A: 433 nM

Q: How did the EC50 turn out when `Cc1cc(C(=O)O)cc2sc(N3CCC(OCc4c(-c5ccccc5OC(F)F)noc4C4CC4)CC3)nc12` [Example 2-9, 2-[4-({5-cyclopropyl-3-[2-(difluoromethoxy)phenyl]-1,2-oxazol-4-yl}methoxy)piperidin-1-yl]-4-methyl-1,3-benzothiazole-6-carboxylic acid] was run?
A: 26 nM

Q: `CC(C)c1onc(-c2c(Cl)cccc2Cl)c1COC1CCN(c2nc3ccc(C(=O)O)cc3s2)CC1` [Example 4B, 2-(4-((3-(2,6-Dichlorophenyl)-5-isopropylisoxazol-4-yl)methoxy)piperidin-1-yl)benzo[d]thiazole-6-carboxylic acid] was tested. Which EC50 did it give?
A: 7 nM

Q: With `O=C(O)c1ccc2nc(N3CCC(OCc4c(C5CCCCC5C(F)(F)F)noc4C4CC4)CC3)sc2c1` (stereo not drawn) [Example 5, 2-[4-({5-cyclopropyl-3-[2-(trifluoromethyl)cyclohexyl]-1,2-oxazol-4-yl}methoxy)piperidin-1-yl]-1,3-benzothiazole-6-carboxylic acid] as the molecule, how does the EC50 read?
A: 44 nM

Q: Which EC50 does the source give for `CCOC(=O)c1ccc2nc(N3CCC(OCc4c(-c5ccccc5OC(F)F)noc4C4CC4)CC3)sc2c1` [Example 2-8A, ethyl 2-[4-({5-cyclopropyl-3-[2-(difluoromethoxy)phenyl]-1,2-oxazol-4-yl}methoxy)piperidin-1-yl]-1,3-benzothiazole-6-carboxylate] here?
A: 2420 nM

Q: `N#Cc1ccc2nc(N3CCC(OCc4c(-c5c(F)cccc5Cl)noc4C4CC4)CC3)sc2c1` [Example 7-5, 2-(4-{[3-(2-chloro-6-fluorophenyl)-5-cyclopropyl-1,2-oxazol-4-yl]methoxy}piperidin-1-yl)-1,3-benzothiazole-6-carbonitrile] was tested. Which EC50 did it give?
A: 836 nM

Q: Which EC50 does the source give for `O=C(O)c1ccc2nc(N3CCCC(OCc4c(-c5ccccc5OC(F)(F)F)noc4C4CC4)CC3)sc2c1` (stereo not drawn) [Example 3-1B, 2-[4-({5-cyclopropyl-3-[2-(trifluoromethoxy)phenyl]-1,2-oxazol-4-yl}methoxy)azepan-1-yl]-1,3-benzothiazole-6-carboxylic acid] here?
A: 7 nM

Q: For `CCOC(=O)c1ccc2nc(N3CCC(OCc4c(-c5c(Cl)cccc5Cl)noc4C(C)C)CC3)sc2c1` [Example 4A, Ethyl 2-(4-((3-(2,6-dichlorophenyl)-5-isopropylisoxazol-4-yl)methoxy)piperidin-1-yl)benzo[d]thiazole-6-carboxylate], which EC50 is on record?
A: 960 nM

Q: With `NC(=O)c1cc(F)c2nc(N3CCC(OCc4c(-c5ccccc5OC(F)(F)F)noc4C4CC4)CC3)sc2c1` [Example 7-4, 2-[4-({5-cyclopropyl-3-[2-(trifluoromethoxy)phenyl]-1,2-oxazol-4-yl}methoxy)piperidin-1-yl]-4-fluoro-1,3-benzothiazole-6-carboxamide] as the molecule, how does the EC50 read?
A: 272 nM

Q: For `O=C(O)c1ccc2nc(N3CCC(OCc4c(C5CCCCC5)noc4C4CC4)CC3)sc2c1` [Example 2-15, 2-{4-[(3-cyclohexyl-5-cyclopropyl-1,2-oxazol-4-yl)methoxy]piperidin-1-yl}-1,3-benzothiazole-6-carboxylic acid], which EC50 is on record?
A: 246 nM

Source: patent US20130261108A1, “COMPOSITIONS AND METHODS FOR MODULATING FARNESOID X RECEPTORS” (IRM LLC, priority 2010, published 2013)
